Measured values taken from patent publication US20150250925A1, “[…] TISSUE, […] MODEL AND MANUFACTURING METHOD THEREFOR” (priority 2012, published 2015).

Columns and labels:
Type in all cases: cell-based, human
[1] = tested on: dermal tissue layer including dendritic cells; test: Immune response evaluation: IL-6 ELISA after LPS addition, dermal tissue layer including dendritic cells; conditions: 24 hours, FIG. 3
Experimental: (§1) A dermal tissue layer including dendritic cells was prepared in the same manner as Example 1. The culture medium of the dermal tissue layer was changed to DMEM containing 10% FBS (the inside of the insert: 30 μl, the outside of the insert: 1 ml). Lipopolysaccharide (LPS, produced by Sigma-Aldrich Co. LLC.) was added to the inside of the insert and incubated for 24 hours. Then, all the culture medium in the outside of the insert was collected, and interleukin (IL)-6 was quantified by enzyme-linked immunosorbent assay (ELISA (R & D, D6056)). The concentration of the lipopolysaccharide was 0, 1, 10, 100, or 1000 ng/ml.
(§2) FIG. 3 is an example of a graph showing the relationship between the amount of LPS added and the amount of IL-6 produced from the dermal tissue layer.

[2] = tested on: dermal tissue layer (without dendritic cells); test: Immune response evaluation: IL-6 ELISA after LPS addition, dermal tissue layer without dendritic cells; conditions: LPS 0, 1, 10, 100 or 1000 ng/ml, 24 hours; layer does not include dendritic cells; FIG. 3
Experimental: as §1
A dermal tissue layer (without dendritic cells) was prepared in the same manner as Example 1 except that “only the NHDF coated cells” were used instead of “a mixture of the NHDF coated cells and the MoDC coated cells”. Using the dermal tissue layer, an immune response was evaluated in the same manner as described above.
as §2

[3] = tested on: artificial skin model including the epidermal layer; test: Immune response evaluation: IL-6 ELISA after LPS addition, artificial skin model of Example 4; conditions: LPS 0-1000 ng/ml, 24 hours, FIG. 4
Experimental: as §1
First, a dermal tissue layer was prepared in the same manner as Example 1 and immersed in a 50 mM Tris-HCl solution (pH=7.4) containing collagen IV for 20 minutes, so that the dermal tissue layer was coated with collagen W Then, 1.8×10^5 KC were seeded and cultured in an adherent culture medium for 2 days. Subsequently, the KC were exposed to the air-liquid interface of a keratinized medium (multi-layered medium) for 7 days to induce differentiation, and thus an artificial skin model was prepared.
Using the artificial skin model, an immune response was evaluated in the same manner as Reference Example 1. […] FIG. 4 is an example of a graph showing the relationship between the amount of LPS added and the amount of IL-6 produced from the dermal tissue layer. […]

[4] = tested on: dermal tissue layer with NHDF, NHDMEC and MoDC; test: CLSM observation of dermal tissue layer of Reference Example 2 after LPS addition; conditions: 1 μg/ml LPS, 30 hours after addition; FIG. 5
Experimental: NHDF coated cells were seeded and cultured so that the NHDF were arranged in 4 layers. Then, NHDMEC (human dermal microvascular endothelial cells) coated cells were seeded and cultured on top of the NHDF layers so that the NHDMEC were arranged in 1 layer. Moreover, NHDF coated cells were seeded and cultured on the NHDMEC layer so that the NHDF were arranged in 4 layers. These layered cells were cultured in 2.3 ml of DMEM containing 10% FBS for 3 days. Subsequently, 5×10^4 MoDC were seeded and cultured in 2.3 ml of DMEM containing 10% FBS for 1 day. Thus, a dermal tissue layer was formed. The dermal tissue layer was placed in the insert, to which 1 μg/ml LPS was added. The dermal tissue layer was observed by a confocal laser scanning microscope for 30 hours.
FIG. 5 is an example of a confocal laser scanning microscope (CLSM) image taken 30 hours after the addition of the LPS. […] Although the details of this are not clear, it is known that the dendritic cells are transferred to the lymphatic vessels when they are activated by an antigen in a living body. […] Moreover, it has been reported that, in a living body, a CC chemokine receptor 7 is expressed in the activated dendritic cells, while CC chemokine ligands 21, 19, which are ligands of the CC chemokine receptor 7, are produced in the lymphatic vessels. […]

Lipopolysaccharide [LPS]
amount of IL-6 produced from the dermal tissue layer ([1]; LPS 0, 1, 10, 100 or 1000 ng/ml, layer includes dendritic cells): increases with an increase in the amount of LPS added | amount of IL-6 produced, layer with dendritic cells compared to layer without ([1]; LPS 0-1000 ng/ml): increases significantly | amount of IL-6 produced from the dermal tissue layer [2]: increases with an increase in the amount of LPS added | amount of IL-6 produced [3]: does not change with the amount of LPS added | overlap between dendritic cells and NHDMEC (CLSM image) [4]: state of overlap between the dendritic cells and the NHDMEC after the addition of the LPS is observed
